According to paper PMC9374667 (Communications Biology, 2022):
Where “and” joins values, the source holds several entries; their conditions need not be identical. Identical values can stand only once.

Tests used:
TNF-α and IL-6 [1] = test: Serum levels of TNF-α and IL-6 (ELISA); type: in vivo, mice; set-up: TNFα / IL-6: unit not given here; conditions: for IL-6: Figure 5i; for Serum TNF-α and IL-6 levels: db/db mice, 5 weeks of treatment
Method: (§1) The serum was collected by centrifugation at 3000 × g at 4 °C for 15 min and stored at −80 °C until analysis. TG, TC, LDL-C, HDL-C, and FFA were routinely tested on a Chemray 240 automatic biochemical analyzer (Chemray 240, Shenzhen, China). Serum levels of mouse adiponectin, interleukin6 (IL-6), tumor necrosis factor-α (TNF-α) were measured using commercial enzyme-linked immunosorbent assay (ELISA) kits (Nanjing Jiancheng Bioengineering Institute, Nanjing, China) and according to the manufacturer’s instructions. The levels of IL-6, TNF-α in 3T3-L1 adipocyte culture supernatant were also detected by ELISA.

glycerol release = test: Glycerol release in eWAT of db/db mice (isoproterenol); type: in vivo; set-up: Glycerol release in eWAT (Figure 4m): unit not given here; conditions: for Release of glycerol in eWAT: db/db mice, isoproterenol stimulation; for Glycerol release in eWAT (Figure 4m): individual samples 1-6
Method: The epididymal adipose tissue was dissected, the fresh adipose tissue was weighed and rapidly rinsed with PBS. The adipose tissue was cut and incubated with isoproterenol (10 μM) for 2 h, and homogenized in a cold cleavage buffer to prepare the adipose tissue homogenate. Then the homogenate was centrifuged at 12,000 × g at 4 °C for 15 min, and the supernatant was collected. […] Then the cells were lysed in a petri dish, scraped off, and centrifuged at 12,000 × g at 4 °C for 15 min before the supernatant was collected. […] And concentrations were further standardized according to protein concentration.

p-TBK1, p-AMPKα, UCP1 = test: Western blotting of TNF-α induced 3T3-L1 adipocytes; type: cell-based, Murine; set-up: p-TBK1 / p-AMPKα (western blotting, Figure 7j) / UCP1 (western blotting, Figure 7k): unit not given here; conditions: for p-TBK1: Figure 7i, replicates; for UCP1 (western blotting, Figure 7k) / p-AMPKα (western blotting, Figure 7j): 3T3-L1 adipocytes, replicates 1-3
Method: The adipose tissue or 3T3-L1 adipocytes were homogenized by ultrasound in an ice‐cold RIPA lysis buffer containing 1% PMSF and centrifuged at 12,000 × g at 4°C for 15 min to collect the supernatant. The BCA protein assay kit (Beyotime, Shanghai, China) was used to detect the total protein concentration. Proteins (20-30 μg) of the sample were separated by 10% SDS-PAGE gel and transferred onto polyvinylidene difluoride (PVDF) membranes. Then the PVDF membranes were blocked in 5% skim milk powder in TBS containing 1% Tween-20 (TBST) for 2 h at room temperature and washed with TBST for 3 times. The membranes were incubated with the appropriate primary antibody, IKKε (1:1000 dilution), TBK1 (1:1000 dilution), p-TBK1 Ser172 (1:1000 dilution), p-AMPKα Thr172 (1:1000 dilution), UCP1 (1:1000 dilution), and GAPDH (1:1000 dilution) in the blocking buffer solution at 4 °C overnight. After washing, the membranes were incubated with horseradish peroxidase-conjugated secondary antibodies (in 5% skim milk powder) for 1 h at room temperature. Finally, the membranes were treated with enhanced chemiluminescence agents (Tanon, Shanghai, China) and the signals were monitored using the Tanon 5200 multi chemiluminescent imaging system (Tanon, Shanghai, China).

[2] = system: Fasn, Acaca, Lpl, Ucp1, Ppargc1a, Ppargc1b, Elovl3, Cox8b; test: qRT-PCR of lipid-metabolism-related genes (eWAT) and thermogenic genes (BAT); type: in vivo; conditions: db/db mice; for Expression of lipogenic genes (Fasn, Acaca, Lpl) in eWAT: vs vehicle control
From the text: Total RNA was isolated from 3T3-L1 cells and adipose tissue homogenates using Trizol reagent (Invitrogen, Carlsbad, CA, USA). RNA concentration and purity were examined at 260/280 nm using a nanodrop spectrophotometer (NanoDrop One, Thermo Fisher Scientific, USA). The total RNA was reverse transcribed to cDNA using the EasyScript All-in-One First-Strand cDNA Synthesis SuperMix for qPCR kit (TransGen Biotech, Beijing, China). The quantitative reverse transcription polymerase chain reaction was performed using TransStart Top Green qPCR SuperMix (TransGen Biotech, Beijing, China) and an Applied Biosystems 7500 RealTime PCR System (Life Technologies, USA). Relative expression levels were normalized to gapdh expression and quantified using the 2^-ΔΔCt method. The primers were synthesized by Shanghai Sangon Biotech, and the detailed primer sequences were shown in Supplementary Table 5 in the supplementary materials.

[3] = system: F4/80-positive macrophages; test: Immunohistochemical staining of eWAT for F4/80; type: in vivo, mice; conditions: for Quantification of immunohistochemical staining: Figure 5k, individual values; for Proportion of F4/80-positive macrophages around adipocytes: db/db mice, epididymal fat pads
Method: The adipose tissue was fixed overnight in 4% paraformaldehyde, then embedded in paraffin and cut into 5 µm thick slices. Tissue sections were stained with hematoxylin and eosin (H&E). For immunohistochemistry, sections were incubated with primary antibodies against F4/80 (1:100 dilution) diluted in the blocking solution at 4 °C overnight. The tissue sections were then incubated with the horseradish peroxidase (HRP)-conjugated secondary antibody at room temperature for 2 h. Finally, the sections were developed with diaminobenzidine (DAB) and counterstained with hematoxylin. Images were obtained under a microscope. To quantify the F4/80-positive macrophages, two random fields per sample were analyzed by Image J software. The IHC profiler plugin of ImageJ was used to calculate the F4/80 positive area.

db/db mice = test: Serum ASAT, ALAT, BUN and Cr (toxicity) in db/db mice; type: in vivo
TNF-α and IL-6 [4] = test: TNF-α and IL-6 in supernatant of TNF-α induced 3T3-L1 adipocytes (ELISA); type: cell-based, Murine; set-up: levels of TNF-α / levels of IL-6: unit not given here; conditions: for Levels of TNF-α and IL-6 in the supernatant: 3T3-L1 adipocytes treated with TNF-α; for levels of TNF-α: Figure 7e
Method: We next examined the role of BJ on TNF-α induced inflammation of differentiated 3T3-L1 adipocytes.
as §1

[5] = Solubility in water and octanol and log P at 25°C; conditions: for solubility: 25 °C
From the text: beyond changes in oral bioavailability and solubility. This is particularly relevant when […]
L og P is the logarithmic value of the oil-water partition coefficient P, which refers to the partition equilibrium of undissociated molecules in the oil and water phases. The log P value is closely related to the water solubility, membrane permeability, in vivo ADME process, and affinity of the compound to the receptor and plays a vital role in the permeation of compounds through biological membranes. The log P 0-5 range is optimal for oral drug penetration by passive diffusion, with poor water solubility for high log P compounds and poor lipid […]
experiments to exert drug activity in cells.

[6] = 150mg/kg, db/db mice, individual animals

Structure (SMILES): COc1ccc2cc3[n+](cc2c1OC)CCc1cc2c(cc1-3)OCO2 [BBR, Berberine chloride dihydrate]
- IL-6 (TNF-α and IL-6 [1]; BBR 150mg/kg, individual values): 24.23 and 30 and 30.18 and 32.12 and 23.56 and 26.45
- TNFα (TNF-α and IL-6 [1]; Figure 5h, BBR 150mg/kg, individual values): 161.97 and 148.57 and 185.98 and 167.03 and 204.23 and 186.47
- Serum TNF-α and IL-6 levels (TNF-α and IL-6 [1]): significantly lower than those in the vehicle-treated group
- Release of glycerol in eWAT (glycerol release): promoted the release of glycerol
- Glycerol release in eWAT (Figure 4m) (glycerol release; db/db+ISO+BBR 150mg/kg): 626.099 and 631.162 and 626.943 and 630.318 and 632.849
- p-TBK1 (p-TBK1, p-AMPKα, UCP1; Tnfa + 10um BBR): 0.5119 and 0.483 and 0.454
- UCP1 (western blotting, Figure 7k) (p-TBK1, p-AMPKα, UCP1; Tnfa + 10um): 0.8587 and 1.148 and 0.9274
- p-AMPKα (western blotting, Figure 7j) (p-TBK1, p-AMPKα, UCP1; Tnfa + 10um): 0.5058 and 0.5536 and 0.7822
- Expression of brown fat enrichment genes (Ucp1, Ppargc1a, Ppargc1b, Elovl3, Cox8b) in BAT [2]: elevated express
- Expression of lipogenic genes (Fasn, Acaca, Lpl) in eWAT [2]: downregulation of lipogenic genes
- Quantification of immunohistochemical staining ([3]; BBR 150mg/kg): 0.8707 and 0.7836 and 0.9995 and 1.2402 and 1.136 and 0.9532
- Proportion of F4/80-positive macrophages around adipocytes [3]: lower than that of the vehicle-treated db/db mice
- ALT (db/db mice; [6]): 86 U/L and 97 U/L and 103 U/L and 92 U/L and 85 U/L
- AST (db/db mice; [6]): 125.4 U/L and 140.1 U/L and 155.9 U/L and 114.8 U/L and 154.6 U/L and 172.8 U/L
- BUN (db/db mice; [6]): 8.17 mmol/L and 9.82 mmol/L and 8.93 mmol/L and 9.15 mmol/L and 9.31 mmol/L and 8.1 mmol/L
- Cr (db/db mice; [6]): 17.7 µmol/L and 16.3 µmol/L and 16.4 µmol/L and 17.9 µmol/L and 17.6 µmol/L
- Fasting serum ASAT, ALAT, BUN, and Cr levels (db/db mice; db/db mice, 5 weeks of treatment, vs vehicle control): reduced fasting serum ASAT, ALAT, BUN, and Cr levels
- Levels of TNF-α and IL-6 in the supernatant (TNF-α and IL-6 [4]): significantly reduced the levels of TNF-α and IL-6
- levels of TNF-α (TNF-α and IL-6 [4]; TNF-α(50ng/ml)+10μM BBR, replicates): 111.895 and 109.61 and 99.3949 and 99.3623 and 111.275 and 110.361
- levels of IL-6 (TNF-α and IL-6 [4]; Figure 7f, TNF-α(50ng/ml)+10μM BBR, replicates): 17.4575 and 16.5244 and 17.8031 and 16.7594 and 17.9828 and 16.9875
- solubility ([5]; octanol, organic solvent or mixture): 14.3 ± 0.41 µM
- logP ([5]; octanol/water): -0.041
- solubility ([5]; water): 15.8 ± 0.81 µM

Structure (SMILES): CC(C)Cc1ccc(C(C)C(=O)[O-])cc1.COc1ccc2cc3[n+](cc2c1OC)CCc1cc2c(cc1-3)OCO2.O.O.O.O [BJ, berberine-ibuprofen]
- IL-6 (TNF-α and IL-6 [1]; BJ 75mg/kg, individual values): 26.97 and 31.48 and 28.06 and 26.92 and 26.5 and 27.07
- IL-6 (TNF-α and IL-6 [1]; BJ 150mg/kg, individual values): 19.1 and 22.16 and 23.89 and 18.97 and 21.55 and 28.79
- Serum TNF-α and IL-6 levels (TNF-α and IL-6 [1]): significantly lower than those in the vehicle-treated group
- Release of glycerol in eWAT (glycerol release): promoted the release of glycerol
- Glycerol release in eWAT (Figure 4m) (glycerol release; db/db+ISO+BJ 75mg/kg): 372.977 and 400.82 and 389.008 and 382.258 and 389.852 and 395.758
- p-TBK1 (p-TBK1, p-AMPKα, UCP1; Tnfa + 3um BJ): 0.5551 and 0.4207 and 0.3485
- p-TBK1 (p-TBK1, p-AMPKα, UCP1; Tnfa + 10um BJ): 0.5649 and 0.4409 and 0.466
- Expression of p-AMPKα, UCP1, and p-TBK1 (p-TBK1, p-AMPKα, UCP1; TNF-α induced 3T3-L1 adipocytes, BJ treatment for 24 h): increased significantly
- UCP1 (western blotting, Figure 7k) (p-TBK1, p-AMPKα, UCP1; Tnfa + 3um): 0.6944 and 0.7423 and 0.5922
- p-AMPKα (western blotting, Figure 7j) (p-TBK1, p-AMPKα, UCP1; Tnfa + 3um): 0.6086 and 0.4894 and 0.5999
- UCP1 (western blotting, Figure 7k) (p-TBK1, p-AMPKα, UCP1; Tnfa + 10um): 1.271 and 1.387 and 0.9844
- p-AMPKα (western blotting, Figure 7j) (p-TBK1, p-AMPKα, UCP1; Tnfa + 10um): 0.7332 and 0.6589 and 0.63
- Expression of brown fat enrichment genes (Ucp1, Ppargc1a, Ppargc1b, Elovl3, Cox8b) in BAT [2]: elevated express
- Expression of lipogenic genes (Fasn, Acaca, Lpl) in eWAT [2]: downregulation of lipogenic genes
- Quantification of immunohistochemical staining ([3]; BJ 75mg/kg): 0.9922 and 0.9735 and 1.1881 and 1.5389 and 0.7221 and 0.7355
- Quantification of immunohistochemical staining ([3]; BJ 150mg/kg): 0.2082 and 0.4937 and 0.5395 and 0.2725 and 0.374 and 0.2768
- Proportion of F4/80-positive macrophages around adipocytes [3]: lower than that of the vehicle-treated db/db mice
- AST (db/db mice; [6]): 123.8 U/L
- Fasting serum ASAT, ALAT, BUN, and Cr levels (db/db mice; mouse, in vivo): reduced fasting serum ASAT, ALAT, BUN, and Cr levels
- Levels of TNF-α and IL-6 in the supernatant (TNF-α and IL-6 [4]): significantly reduced the levels of TNF-α and IL-6
- levels of TNF-α (TNF-α and IL-6 [4]; TNF-α(50ng/ml)+10μM BJ, replicates): 96.425 and 110.916 and 111.046 and 97.6978 and 106.64 and 114.538
- log P [5]: 1.564
